The source of these data is US7655819B2, “Polymers with antimicrobial, bioresistant and fungal resistant properties” (TPAT IP LLC, priority 2002, dated 2010).

The test system of assay [1] is bacteria (bacterial count). Kind of assay: ASTM D-3946-92 testing of metalworking fluid Encool SS with product incorporated. It is filed as cell-based. The following applies: day 5, 1×10^7 without product. Here is the method:
1,128 g oleic acid and 400 g BNPD plus 2 g sulfuric were charged in a three neck round bottom flask with agitation, nitrogen, and condenser and heated to 350 F and held for 2.5 hrs until 80 ml of water were recovered. This product was then incorporated into Engineered Lubricants Encool SS at 6% and 10% of the concentrate.
These samples were then submitted for ASTM D-3946-92 testing.

The test system of assay [2] is various strains of both gram positive and gram negative bacteria. The settings on record: cited from earlier work.
The next assay deals with fungus. The following applies: cited from earlier work.
The test system of another assay is nematodes in the soil. The settings on record: prior art; cited from earlier work.
The conditions of assay [3]: prior art; cited from earlier work.

For `CCCCCCC/C=C/CCCCCCCCC(=O)OCC(Br)(COC(=O)CCCCCCCC/C=C/CCCCCCC)[N+](=O)[O-]` [Example 7], the bacterial count was 1.5×10^4 in assay [1] (6% incorporation in Encool SS concentrate) and 3×10^3 in assay [1] (10% incorporation in Encool SS concentrate).

With `O=[N+]([O-])C(Br)(CO)CO` [BNPD, 2-bromo-2-nitro-propane-1-3-diol], the “average minimum inhibitory concentration” value in assay [2] (average over gram positive and gram negative strains) is recorded as “around 25 ppm”. Also, the “effective concentrations against bacteria” value in assay [2] (various strains of gram positive and gram negative bacteria) was 1-50 ppm. The antifungal activity entry in the assay on fungus is “antifungal”.

As to `O=[N+]([O-])CBr` [bromonitromethane], the “effectiveness for the treatment of nematodes in the soil” value with nematodes in the soil is “effective”. The “effectiveness as a general biocide” value in assay [3] is reported as “effective”.
